How the values were obtained:
Experiment in all cases: relative viability (nuclei count vs DMSO), 5 days (fraction); higher = more cells survive
[1] = compound: C1CC2=C(C1)C=C(C=C2)OC3=NC(=C4C(=N3)N(C=N4)CC5=CC=C(C=C5)C6=CC=CC=C6)N[C@@H](CC7=CC=CC=C7)CO [QS11] + CC1(C)CCC(c2ccc(Cl)cc2)=C(CN2CCN(c3ccc(C(=O)NS(=O)(=O)c4ccc(N[C@H](CCN5CCOCC5)CSc5ccccc5)c(S(=O)(=O)C(F)(F)F)c4)cc3)CC2)C1 [Navitoclax] (partner 0.5 µM)
Procedure, shortened: (§1)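 Dosing by pin tool came one day after lung cancer cell lines were seeded in 1536-well plates, using either one drug or a fixed anchor-drug dose plus five library-drug doses (not always all listed) in √10 steps. After 5 days, nuclei were counted on 4× images. Relative viability is treated-well nuclei count divided by vehicle-well nuclei count, and values are medians of duplicate plates.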

[2] = compound: C[As](C)SC[C@H](NC(=O)CC[C@H](N)C(=O)O)C(=O)NCC(=O)O [Darinaparsin] + C[C@]1(O)C[C@@H](c2nc(-c3ccc4ccc(-c5ccccc5)nc4c3)c3c(N)nccn32)C1 [Linsitinib] (partner 1 µM)
Procedure, shortened: as §1

[3] = compound: C[As](C)SC[C@H](NC(=O)CC[C@H](N)C(=O)O)C(=O)NCC(=O)O [Darinaparsin] + CC(=O)Nc1cccc(-n2c(=O)n(C3CC3)c(=O)c3c(Nc4ccc(I)cc4F)n(C)c(=O)c(C)c32)c1 [Trametinib] (partner 0.02 µM)
Procedure, shortened: as §1

[4] = compound: CC1=C(C=C(C=C1)NC(=O)C2=CC(=CC=C2)C(C)(C)C#N)NC3=CC4=C(C=C3)N=CN(C4=O)C [AZ628] + COc1cccc2cc(-c3nc([C@H]4CC[C@H](C(=O)O)CC4)n4ncnc(N)c34)[nH]c12 [OSI-027] (partner 0.5 µM)
Procedure, shortened: as §1

Row | Cell Line | relative viability ([1]; first compound 0.08 µM) | relative viability ([1]; first compound 0.253 µM) | relative viability ([1]; first compound 0.8 µM) | relative viability ([1]; first compound 2.53 µM) | relative viability ([1]; first compound 8 µM) | relative viability ([2]; first compound 0.08 µM) | relative viability ([2]; first compound 0.8 µM) | relative viability ([2]; first compound 2.53 µM) | relative viability ([2]; first compound 8 µM) | relative viability ([3]; first compound 0.08 µM) | relative viability ([3]; first compound 0.8 µM) | relative viability ([3]; first compound 2.53 µM) | relative viability ([3]; first compound 8 µM) | relative viability ([4]; first compound 0.08 µM) | relative viability ([4]; first compound 0.253 µM) | relative viability ([4]; first compound 0.8 µM) | relative viability ([4]; first compound 2.53 µM) | relative viability ([4]; first compound 8 µM)
1 | NCI-H1993 | 0.833 | 0.761 | 0.997 | 0.946 | 0.893 | 0.65 | 0.7 | 0.699 | 0.695 | 0.661 | 0.5 | 0.512 | 0.589 | 0.541 | 0.578 | 0.53 | 0.594 | 0.577
2 | NCI-H1355 | 0.876 | 0.869 | 0.791 | 1.03 | 0.881 | 0.805 | 0.746 | 0.686 | 0.838 | 0.462 | 0.403 | 0.378 | 0.426 | 0.435 | 0.327 | 0.311 | 0.308 | 0.298
3 | PC-3 [JPC-3] | 0.738 | 0.884 | 0.771 | 0.84 | 0.938 | 0.961 | 0.955 | 1.06 | 1.05 | 0.758 | 0.737 | 0.704 | 0.659 | 0.791 | 0.731 | 0.753 | 0.815 | 0.683
4 | NCI-H1651 | 1.13 | 0.998 | 0.936 | 0.98 | 0.839 | 1.21 | 1.08 | 0.938 | 1.13 | 0.825 | 0.784 | 0.813 | 0.898 | 0.577 | 0.703 | 0.649 | 0.579 | 0.659
5 | LK-2 | 0.763 | 0.888 | 0.975 | 0.762 | 1.11 | 0.486 | 0.459 | 0.658 | 0.637 | 0.936 | 0.61 | 0.847 | 0.878 | 0.191 | 0.234 | 0.234 | 0.187 | 0.198
6 | NCI-H2023 | 1.02 | 1.02 | 0.925 | 1.16 | 1.12 | 0.7 | 0.669 | 0.604 | 0.858 | 0.728 | 0.557 | 0.629 | 0.579 | 0.369 | 0.374 | 0.329 | 0.309 | 0.234
7 | COR-L23 | 1.06 | 0.922 | 0.818 | 0.865 | 0.761 | 1.24 | 0.886 | 0.859 | 1.02 | 0.699 | 0.581 | 0.538 | 0.681 | 0.678 | 0.669 | 0.602 | 0.558 | 0.302
8 | NCI-H1734 | 0.803 | 0.96 | 0.751 | 0.568 | 0.663 | 1.23 | 0.917 | 0.674 | 0.932 | 0.724 | 0.611 | 0.655 | 0.677 | 0.604 | 0.565 | 0.512 | 0.46 | 0.293
